The record followed here is US20130165446A1 (priority 2010, published 2013).

pEC50: −log10 of the molar value.

Assay [1] deals with ob/ob mice (C57b1/6ob/ob female mice). As to the kind of experiment: Glucose tolerance test (in vivo). The conditions noted are these: for Glucose concentration: fasted ob/ob mice, oral load 2 g/kg glucose, Example 8 oral 10 mg/kg days 1-25 then 20 mg/kg days 26-33, rosiglitazone 3 mg/kg, n=8. The procedure:
(§1) A test compound (the compound of Example 8, n=8) was given orally to 5- to 6-week-old ob/ob mice (C57b1/6ob/ob female mice) at a dose of 10 mg/kg for 1-25 days, then a test compound (the compound of Example 8) was given at 20 mg/kg for 26-33 days. An oral load test of 2 g/kg of glucose was carried out while the mice were fasted, and the blood glucose concentration was measured at −30, 0, 30, 60, 90, 120, and 180 minutes. For comparison, 3 mg/kg of rosiglitazone (n=8) were given for 1-25 days, then 3 mg/kg of rosiglitazone were given for 26-33 days, and the blood glucose concentration was measured in the same manner. Table 7 indicates the results.

For assay [2], the target named is T1, human nuclear receptor PPARγ (Homo sapiens, UniProt P37231).
T1 sequence (P37231 238-503 limits assumed): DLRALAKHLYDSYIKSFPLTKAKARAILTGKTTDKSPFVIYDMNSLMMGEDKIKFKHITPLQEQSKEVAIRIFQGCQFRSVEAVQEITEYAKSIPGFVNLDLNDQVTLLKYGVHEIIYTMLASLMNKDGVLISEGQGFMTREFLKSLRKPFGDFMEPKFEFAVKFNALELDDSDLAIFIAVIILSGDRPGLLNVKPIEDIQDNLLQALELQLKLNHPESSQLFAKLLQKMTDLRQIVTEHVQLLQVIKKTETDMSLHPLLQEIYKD
The experiment in a line: PPAR agonist activity measurement test (cell-free FRET cofactor assay), PPARγ. The assay is classed as biochemical. The protocol:
(§2) Agonist activity to the human nuclear receptors PPARα, β, and γ was measured using a biochemical fluorescent resonance energy transfer (FRET) assay system, which is a cell-free assay system, following a method described in the literature (for example, J. Biol. Chem., vol. 281 (8), pages 4920-4930 (2006)).
(§3) Specifically, after an N-terminal biotin-labeled peptide having cofactor peptide SRC1 (amino acid sequence 676-700), which includes the nuclear receptor bonding LXXLL motif region, and the fluorescent fusion proteins of the PPAR ligand binding domain were allowed to stand at room temperature for one hour, the energy transfer between the fluorescence donor and the fluorescence acceptor was measured to detect the test compound dose reaction to the cofactor.
(§4) A Perkin-Elmer Envision Multilabel Plate Reader was used for measurement. During measurement, 320 nm was used as the excitation wavelength, and 615 nm and 665 nm were used as the emission wavelengths. The test compound was dissolved in DMSO (dimethylsulfoxide) to a final solution concentration of 1%.

Assay [3] in a line: Weight gain test (in vivo). Conditions: ob/ob mice; for Weight gain: Example 8 10 mg/kg, rosiglitazone 3 mg/kg, days 1-25. The procedure:
as §1
The body weight of mice was measured when 10 mg/kg of the same test compound (the compound of Example 8) were given for 1-25 days, and 3 mg/kg of rosiglitazone were given for 1-25 days. Table 8 indicates the results.

Assay [4] concerns the target T2, human nuclear receptor PPARβ (Homo sapiens, UniProt Q03181).
T2 sequence (Q03181 211-439 limits assumed): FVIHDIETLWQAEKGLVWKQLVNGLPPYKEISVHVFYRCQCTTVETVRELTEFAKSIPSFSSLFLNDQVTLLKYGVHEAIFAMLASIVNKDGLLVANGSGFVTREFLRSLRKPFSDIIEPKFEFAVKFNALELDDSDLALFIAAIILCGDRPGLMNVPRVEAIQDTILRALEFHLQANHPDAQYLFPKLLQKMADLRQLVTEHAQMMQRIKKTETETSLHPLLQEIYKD
The experiment in a line: PPAR agonist activity measurement test (cell-free FRET cofactor assay), PPARβ. Conditions: result in words. It counts as biochemical. The procedure: as §2, §3, §4

Assay [5] deals with T3, human recombinant (CHO cell) AT1 receptor (Homo sapiens, UniProt P30556).
T3 construct: expressed in transfected cells; host or cells: CHO cells
T3 sequence (P30556 1-359): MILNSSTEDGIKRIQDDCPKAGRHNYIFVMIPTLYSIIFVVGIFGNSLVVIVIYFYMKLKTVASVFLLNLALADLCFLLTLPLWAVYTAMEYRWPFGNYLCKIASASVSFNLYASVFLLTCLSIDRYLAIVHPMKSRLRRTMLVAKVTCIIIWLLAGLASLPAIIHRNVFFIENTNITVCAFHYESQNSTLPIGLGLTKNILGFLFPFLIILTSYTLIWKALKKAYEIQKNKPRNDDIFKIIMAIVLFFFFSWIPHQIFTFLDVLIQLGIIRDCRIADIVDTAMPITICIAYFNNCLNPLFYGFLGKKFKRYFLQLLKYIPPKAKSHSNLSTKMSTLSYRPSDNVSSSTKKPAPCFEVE
The experiment in a line: Angiotensin II inhibition test (radioligand binding to AT1 receptor). Conditions: test compound concentration 10^−9 M; radioactive iodine-labeled angiotensin II, 37° C., sixty minutes; read-out: Inhibition rate (%). The protocol: A test of inhibition of angiotensin II to human recombinant (CHO cell) AT1 receptor following a method described in the literature (for example, Regul. Pept., vol. 44 (2), page 131 (1993)) was used to measure inhibitory activity to a test compound.
The ligand used was 10^−9 M of a test compound dissolved in 1% DMSO (dimethylsulfoxide). This was reacted with radioactive iodine-labeled angiotensin II at 37° C. for sixty minutes. Taking the inhibition rate of angiotensin II at 10 μM as nonspecific binding, the specific binding rate was calculated by subtracting this nonspecific portion. Table 6 indicates the results (the inhibition rate at test compound concentration: 10^−9 M)

In assay [6] the target is T4, human nuclear receptor PPARα (Homo sapiens, UniProt Q07869).
T4 sequence (Q07869 239-466 limits assumed): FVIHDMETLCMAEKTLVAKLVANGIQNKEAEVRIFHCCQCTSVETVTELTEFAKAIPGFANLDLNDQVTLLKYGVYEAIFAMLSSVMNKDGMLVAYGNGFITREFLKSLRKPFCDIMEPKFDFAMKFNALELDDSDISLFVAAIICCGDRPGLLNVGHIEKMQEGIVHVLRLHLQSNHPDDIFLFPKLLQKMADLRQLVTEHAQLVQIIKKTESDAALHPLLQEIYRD
As to the kind of experiment: PPAR agonist activity measurement test (cell-free FRET cofactor assay), PPARα. The assay is classed as biochemical. The conditions noted are these: result in words. The protocol:
as §2, §3, §4

By inhibition is commonly meant the change of the read-out against control, counted positive when it falls. `CCCc1nc(CSc2ccc(Oc3ccc4nc(COc5ccc(CC6SC(=O)NC6=O)cc5)n(C)c4c3)cc2)c(C(=O)OCC)n1Cc1ccc(-c2ccccc2-c2nnn[nH]2)cc1` (centres unmarked) [Example 8, 4-[4-{2-[4-(2,4-dioxothiazolidin-5-ylmethyl)phenoxymethyl]-1-methyl-1H-benzimidazol-6-yloxy}phenylthiomethyl]-2-propyl-1-[2′-(1H-tetrazol-5-yl)biphenyl-4-ylmethyl]-1H-imidazole-5-carboxylic acid ethyl ester]: the “Glucose concentration” value is reported as 6.4 ± 0.6 mmol/L in assay [1] (0 min); 12.5 ± 0.9 mmol/L in assay [1] (30 min); 7.3 ± 0.9 mmol/L in assay [1] (60 min); 5.5 ± 0.6 mmol/L in assay [1] (120 min); 6.1 ± 0.6 mmol/L in assay [1] (180 min); 7.6 ± 0.9 mmol/L in assay [1] (−30 min). In addition, the “increase in blood glucose concentration compared to the control” value in assay [1] (ob/ob mice, oral glucose load 2 g/kg, result in words) was “significantly inhibited increase in blood glucose concentration compared to the control”. Further, in assay [2] (FRET agonist assay, result in words), the “activity against PPARγ” value is given as “exhibited activity only against PPARy”. For the same compound, the pEC50 in assay [2] (FRET, cofactor peptide SRC1, twelve concentrations 50 μM to 0 nM, 1% DMSO, read-out: ED50 (the source's name)) was 6.94. Also, the “Weight gain” value was found to be 0 g in assay [3] (day 0); 0.8 ± 0.0 g in assay [3] (day 4); 3.3 ± 0.2 g in assay [3] (day 11); 4.2 ± 0.3 g in assay [3] (day 14); 5.9 ± 0.3 g in assay [3] (day 18); 6.8 ± 0.2 g in assay [3] (day 24). Also, the “weight gain compared to the control” value in assay [3] (10 mg/kg days 1-25, result in words) is “nearly comparable weight gain to the control”. In assay [3] (10 mg/kg days 1-25 vs rosiglitazone 3 mg/kg, result in words), the “weight gain compared to rosiglitazone” value is reported as “significantly inhibited weight gain compared to rosiglitazone”. Further, the “activity against PPARβ” value in assay [4] is given as “did not exhibit activity”. Moreover, the inhibition at 0.001 µM in assay [5] worked out at 73%. In assay [6], the “activity against PPARα” value is “did not exhibit activity”.
On to `CN(CCOc1ccc(CC2SC(=O)NC2=O)cc1)c1ccccn1` (centres unmarked) [Rosiglitazone, rosiglitazone, reference compound], for which the “Glucose concentration” value in assay [1] (0 min) was 4.6 ± 0.3 mmol/L; in assay [1] (30 min), 12.5 ± 0.9 mmol/L; in assay [1] (60 min) it was 4.9 ± 0.3 mmol/L; in assay [1] (120 min), 4.6 ± 0.1 mmol/L; in assay [1] (180 min), 4.6 ± 0.1 mmol/L; in assay [1] (−30 min), 4.6 ± 0.3 mmol/L. In addition, the “Weight gain” value came out at 0 g in assay [3] (day 0); 1.2 ± 0.1 g in assay [3] (day 4); 4.5 ± 0.3 g in assay [3] (day 11); 5.8 ± 0.1 g in assay [3] (day 14); 7.5 ± 0.2 g in assay [3] (day 18); 8.9 ± 0.2 g in assay [3] (day 24).
